In patent publication US12319655B2, “RAF kinase inhibitors and methods of use thereof” (Deciphera Pharmaceuticals, LLC, priority 2021, dated 2025):

These compounds were tested on WM3629 cells (assay: WM3629 Cell Proliferation Assay (1)). Conditions: not given.
Type: cell-based
Method: WM3629 Cell Proliferation Assay (1)
WM3629 cells (#WM3629-01-0001) are obtained from Rockland Immunochemicals Inc (Gilbertsville, PA). Briefly, cells were grown in MCDB 153 medium (Sigma, #M7403, St. Louis, MO) supplemented with 20% Leibovitz's L-15 (ThermoFisher #11415-064, Waltham, MA), 2% heat inactivated fetal bovine serum (ThermoFisher, #A3840001, Waltham, MA), 5 μg/mL Insulin (Bovine Pancreas) (Sigma, #10516, St. Louis, MO), 1.68 mM Calcium Chloride (Sigma, #C-34006, St. Louis, MO) and 1% Penicillin/Streptomycin/L-Glutamine (ThermoFisher #10378016, Waltham, MA) at 37° C., 5% CO2, and 95% humidity. Cells are expanded until reaching 70-95% confluency at which point they are subcultured or harvested for assay use. A serial dilution of test compound is dispensed into a 96-well black clear bottom plate in triplicate. Four thousand five hundred cells are added per well in 200 μL complete growth medium in the 96-well plate. Plates are incubated for 67-72 hours at 37° C., 5% CO2, and 95% humidity. At the end of the incubation, 40 μL of a 440 μM solution of resazurin (Sigma, #199303, St. Louis, MO) in PBS is added to each well of the plate and plates are incubated for an additional 6-7 hours at 37° C., 5% CO2, and 95% humidity. Plates are read on a Synergy2 or equivalent reader (Biotek, Winooski VT) using an excitation of 540 nm and an emission of 600 nm. Data is analyzed using Prism software (GraphPad, San Diego, CA) to calculate IC50 values.

`CNC(=O)c1cc(-c2cc(-c3cc(NC(=O)c4ccnc(C5(C#N)CC5)c4)ccc3C)ncn2)ccn1` [Example 178] and `Cc1ccc(NC(=O)c2ccnc(C3(C#N)CC3)c2)cc1-c1ccnc(-c2ccnc(NC(=O)C3CC3)c2)n1` [Example 180] cannot be ordered by IC50: no more than 0.1 µM for the first, no more than 0.1 µM for the second.

`Cc1ncc(NC(=O)c2ccnc(C(C)(C)C#N)c2)cc1-c1cccc(-c2cc(NC(=O)C3CC3)ncn2)c1` [Example 181] gave an IC50 of no more than 0.1 µM.

These compounds were tested on H2405 cells (assay: H2405 Cell Proliferation Assay (1)). Conditions: Homo sapiens, NCI-H2405.
Type: cell-based
Method: H2405 Cell Proliferation Assay (1)
H2405 cells (catalog #CRL-5994) are obtained from the American Type Culture Collect (ATTC, Manassas, VA). Briefly, cells were grown in RPMI 1640 supplemented with 5% characterized fetal bovine serum (Invitrogen, Carlsbad, CA) and 1% Penicillin/Streptomycin/L-Glutamine at 37° C., 5% CO2, and 95% humidity. Cells are expanded until reaching 70-95% confluency at which point they are sub-cultured or harvested for assay use. A serial dilution of test compound is dispensed into a 96-well black clear bottom plate in triplicate. Three thousand cells are added per well in 200 μL complete growth medium in the 96-well plate. Plates are incubated for 67-72 h at 37° C., 5% CO2, and 95% humidity. At the end of the incubation, 40 μL of a 440 μM solution of resazurin (Sigma, St. Louis, MO) in PBS is added to each well of the plate and plates are incubated for an additional 5-6 h at 37° C., 5% CO2, and 95% humidity. Plates are read on a Synergy2 or equivalent reader (Biotek, Winooski VT) using an excitation of 540 nm and an emission of 600 nm. Data is analyzed using Prism software (GraphPad, San Diego, CA) to calculate IC50 values.

`CC(=O)Nc1cc(-c2cc(-c3cc(NC(=O)c4ccnc(C(F)(F)F)c4)ccc3C)ccn2)ccn1` [Example 6] and `CC(=O)Nc1cc(-c2ccnc(-c3cc(NC(=O)c4ccnc(C(C)(C)C#N)c4)ccc3C)n2)ccn1` [Example 103] cannot be ordered by IC50: no more than 0.1 µM for the first, no more than 0.1 µM for the second.

`Cc1cc(F)c(NC(=O)c2ccnc(C(C)(C)C#N)c2)cc1-c1ccnc(-c2ccnc(NC=O)c2)c1` [Example 104] and `CNC(=O)c1cc(-c2cc(-c3cc(NC(=O)c4ccnc(C(C)(C)C#N)c4)c(F)cc3C)ccn2)ccn1` [Example 176] cannot be ordered by IC50: no more than 0.1 µM for the first, 0.1 to 0.5 µM for the second.

`Cc1ccc(NC(=O)c2cccc(C(C)(C)C#N)c2)cc1-c1cc(OCCO)nc(-c2ccnc3c2CC(=O)N3)c1` [Example 108] and `Cc1ccc(NC(=O)c2ccnc(C(C)(C)C#N)c2)cc1-c1cccc(-c2ccnc3[nH]ncc23)c1` [Example 134] cannot be ordered by IC50: no more than 0.1 µM for the first, 0.1 to 0.5 µM for the second.

First: Cc1ncc(NC(=O)c2ccnc(C(C)(C)C#N)c2)cc1-c1cccc(-c2ccnc3[nH]cnc23)c1 [Example 111]
Second: Cc1ncc(NC(=O)c2ccnc(C(C)(C)C#N)c2)cc1-c1cccc(-c2ncnc3[nH]ncc23)c1 [Example 129]
The IC50 of the first is higher: 1 to 10 µM for the first, 0.1 to 0.5 µM for the second. The second is the more potent here.

`Cc1ccc(NC(=O)c2ccnc(C(C)(C)C#N)c2)cc1-c1cncc(-c2ccnc(NC(=O)C3CC3)c2)n1` [Example 112] and `CC(=O)Nc1cc(-c2cncc(-c3cc(NC(=O)c4cccc(C(C)(C)C#N)c4)ccc3C)n2)ccn1` [Example 125] cannot be ordered by IC50: no more than 0.1 µM for the first, no more than 0.1 µM for the second.

Compared with `Cc1ccc(NC(=O)c2ccnc(C(F)(F)F)c2)cc1-c1ccnc(-c2ccnc(N)c2)n1` [Example 122], `Cc1ccc(NC(=O)c2ccnc(C3(C#N)CC3)c2)cc1-c1ccnc(-c2ccnc(NC(=O)C3CC3)c2)n1` [Example 180] is lower in IC50: 1 to 10 µM for the first, no more than 0.1 µM for the second. The second is the more potent here.

`CC(=O)Nc1cc(-c2cncc(-c3cc(NC(=O)c4cc(C(F)(F)F)ccn4)ccc3C)n2)ccn1` [Example 124] and `COCC(=O)Nc1cc(-c2cccc(-c3cc(NC(=O)c4ccnc(C(F)(F)F)c4)cnc3C)n2)ccn1` [Example 130] cannot be ordered by IC50: no more than 0.1 µM for the first, 0.1 to 0.5 µM for the second.

First: Cc1ncc(NC(=O)c2ccnc(C3CC3)c2)cc1-c1cccc(-c2ncnc3[nH]ncc23)c1 [Example 131]
Second: Cc1ncc(NC(=O)c2ccnc(C(C)(C)C#N)c2)cc1-c1cccc(-c2cc(NC(=O)C3CC3)ncn2)c1 [Example 181]
The IC50 of the first is higher: 1 to 10 µM for the first, no more than 0.1 µM for the second.

Compared with `Cc1ccc(NC(=O)c2ccnc(C(C)(C)C#N)c2)cc1-c1cccc(-c2ccnc3[nH]ccc23)c1` [Example 133], `CNC(=O)c1cc(-c2cccc(-c3cc(NC(=O)c4ccnc(C(C)(C)C#N)c4)ccc3C)c2)ncn1` [Example 171] is lower in IC50: 0.5 to 1 µM for the first, 0.1 to 0.5 µM for the second. The second is the more potent here.

`Cc1ccc(NC(=O)c2ccnc(C(C)(C)C#N)c2)cc1-c1ccnc(-c2ccnc(C(=O)NC3CC3)c2)c1` [Example 162] and `CNC(=O)c1cc(-c2cc(-c3cc(NC(=O)c4ccnc(C(C)(C)C#N)c4)ccc3C)cc(C3CC3)n2)ccn1` [Example 163] cannot be ordered by IC50: 0.1 to 0.5 µM for the first, no more than 0.1 µM for the second.

First: CNC(=O)c1cc(-c2nccc(-c3cc(NC(=O)c4ccnc(C(C)(C)C#N)c4)c(F)cc3C)n2)ccn1 [Example 166]
Second: CNC(=O)c1cc(-c2cc(-c3cc(NC(=O)c4ccnc(C5(C#N)CC5)c4)ccc3C)ncn2)ccn1 [Example 178]
The IC50 of the first is higher: 0.5 to 1 µM for the first, 0.1 to 0.5 µM for the second.
